{"source": "ChEMBL document CHEMBL1201862", "about": "“PubChem BioAssay data set” (2004)", "key": {"[1]": {"target": "Luciferin 4-monooxygenase (Photinus pyralis, UniProt P08659)", "sequence (P08659 whole entry)": "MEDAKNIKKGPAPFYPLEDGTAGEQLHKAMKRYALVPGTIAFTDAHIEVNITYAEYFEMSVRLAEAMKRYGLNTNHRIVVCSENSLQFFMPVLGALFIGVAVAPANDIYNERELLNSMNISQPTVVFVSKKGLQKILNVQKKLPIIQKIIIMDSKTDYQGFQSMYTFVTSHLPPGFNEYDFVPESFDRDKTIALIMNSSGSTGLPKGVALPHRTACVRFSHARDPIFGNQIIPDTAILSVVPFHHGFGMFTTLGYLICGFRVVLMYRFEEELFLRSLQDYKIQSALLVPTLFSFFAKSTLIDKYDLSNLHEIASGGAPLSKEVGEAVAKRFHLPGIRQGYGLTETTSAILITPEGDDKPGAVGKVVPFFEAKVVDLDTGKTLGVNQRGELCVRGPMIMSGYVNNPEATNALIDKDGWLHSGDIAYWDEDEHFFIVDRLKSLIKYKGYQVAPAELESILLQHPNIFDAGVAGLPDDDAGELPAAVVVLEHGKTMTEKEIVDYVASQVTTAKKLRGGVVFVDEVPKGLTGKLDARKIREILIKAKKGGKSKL", "assay": "inhibition of purified Photinus pyralis luciferase – biochemical, luminescence, dose response (AID 1891)"}, "[2]": {"assay": "Luminescence Cell-Based Dose Confirmation HTS to Identify Inhibitors of Platelet Dense Granule Release. [Related pubchem assays: 1663 (Primary HTS), 1678 (Summary of Project)]", "format": "functional"}, "[3]": {"assay": "luciferase reporter signal suppression in cells – H4 neuroglioma cells, luminescence, dose response (AID 1990)", "format": "functional, cell-based"}, "[4]": {"assay": "Luminescence Cell-Based Dose Response HTS to Identify Inhibitors of 5'UTR Stem-Loop Driven Prion Protein mRNA Translation in H4 Neuroglioblastoma Cells. [Related pubchem assays: 1827 (Project Summary), 1813 (Primary HTS)]", "format": "functional"}, "[5]": {"assay": "alpha-synuclein stem-loop luciferase translation blockers – H4 neuroglioma cells, luminescence, confirmation (AID 1988)", "format": "functional, cell-based"}, "[6]": {"assay": "viability of PTEN-deleted HCT116 cells – cell-based, HCT116 PTEN knockout, dose response (AID 1047);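 further: cells exposed to compound for 60 hours before readout; potency for loss of cell viability measured by luminescence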", "format": "functional"}, "[7]": {"assay": "viability of HCT116 lacking mutant beta-catenin – cell-based, human colon tumor, dose response (AID 1045);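 further: cells exposed to compound for 60 hours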", "format": "functional"}, "[8]": {"target": "T1, Heat shock factor protein 1 (Mus musculus, UniProt P38532)", "T1 sequence (P38532 whole entry)": "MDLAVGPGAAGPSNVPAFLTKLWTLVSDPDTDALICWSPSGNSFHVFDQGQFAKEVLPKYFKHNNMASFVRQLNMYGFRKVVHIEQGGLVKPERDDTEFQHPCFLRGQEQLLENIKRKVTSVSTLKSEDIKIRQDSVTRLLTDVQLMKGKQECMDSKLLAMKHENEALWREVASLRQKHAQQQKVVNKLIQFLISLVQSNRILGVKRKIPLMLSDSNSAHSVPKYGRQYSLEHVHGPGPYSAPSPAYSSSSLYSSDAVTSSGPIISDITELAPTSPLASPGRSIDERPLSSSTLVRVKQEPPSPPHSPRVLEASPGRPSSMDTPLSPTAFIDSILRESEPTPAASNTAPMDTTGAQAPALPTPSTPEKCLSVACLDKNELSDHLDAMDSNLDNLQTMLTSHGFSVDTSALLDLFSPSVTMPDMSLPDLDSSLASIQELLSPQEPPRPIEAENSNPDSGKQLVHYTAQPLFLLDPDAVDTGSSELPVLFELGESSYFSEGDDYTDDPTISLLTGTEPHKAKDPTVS", "assay": "enhancement of HSF1-driven luciferase signal – cell-based, NIH3T3, luminescence, dose retest, confirmation (AID 435004);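 further: stress induced by proteasome inhibitor MG132 added 30 min after compound; actives raise luminescence as potentiators of the MG132 stress response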", "format": "functional"}, "[9]": {"assay": "microbe, parasite or virus in culture", "format": "functional", "settings": "Mycobacterium tuberculosis"}, "[10]": {"assay": "Luminescence Cell-Based Dose Retest to Confirm Inhibitors of Cancer Stem Cells. [Related pubchem assays (depositor defined):AID2717, AID2721]", "format": "functional", "settings": "Homo sapiens"}, "[11]": {"target": "T2, Polyadenylate-binding protein 1 (Homo sapiens, UniProt P11940)", "T2 sequence (P11940 whole entry)": "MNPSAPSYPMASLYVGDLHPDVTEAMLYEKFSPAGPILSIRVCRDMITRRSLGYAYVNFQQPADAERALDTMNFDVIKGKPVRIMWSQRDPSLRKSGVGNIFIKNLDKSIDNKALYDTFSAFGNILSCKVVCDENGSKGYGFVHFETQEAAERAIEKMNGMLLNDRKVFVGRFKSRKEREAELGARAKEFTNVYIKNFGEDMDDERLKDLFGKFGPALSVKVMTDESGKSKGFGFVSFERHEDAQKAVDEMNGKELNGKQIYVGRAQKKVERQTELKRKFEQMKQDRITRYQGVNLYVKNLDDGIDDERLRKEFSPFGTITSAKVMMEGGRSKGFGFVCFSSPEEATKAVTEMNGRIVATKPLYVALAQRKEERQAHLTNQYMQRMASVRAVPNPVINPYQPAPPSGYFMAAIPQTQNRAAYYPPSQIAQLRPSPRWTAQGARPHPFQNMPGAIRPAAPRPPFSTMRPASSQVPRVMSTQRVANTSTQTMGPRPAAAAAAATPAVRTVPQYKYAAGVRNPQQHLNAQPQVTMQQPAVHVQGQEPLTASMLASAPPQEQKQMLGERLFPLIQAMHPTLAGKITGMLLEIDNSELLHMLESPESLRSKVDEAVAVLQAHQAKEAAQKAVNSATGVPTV", "assay": "MLLE binding blockers, Cy5 peptide tracer – biochemical, fluorescence polarization, Cy5-PAM2 peptide, secondary, miRNA deadenylation inhibitor project, dose response (AID 602260)", "format": "functional", "settings": "read-out: IC50_Mean"}, "[12]": {"target": "T2, Polyadenylate-binding protein 1", "assay": "MLLE domain peptide-binding blockers, IC50 – biochemical, fluorescence polarization, FITC-PAM2 peptide, dose response (AID 602259)", "format": "functional", "settings": "read-out: IC50_Mean"}}, "note": "Activity calls are given as the source filed them.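 Wherever AC50 is given: cells exposed to compound for roughly 70 hours or longer before luminescence read.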", "data": [{"compound": "CCC(=O)NCCc1nc2ccccc2n1Cc1ccccc1", "values": [{"measurement": "EC50", "setting": "[1]", "result": "> 112 µM (not active)"}, {"measurement": "EC50", "setting": "[2]", "result": "> 112 µM (not active)"}]}, {"compound": "Cc1c(C(=O)C(=O)N2c3ccc(F)cc3CCC2C)c2ccccc2n1C", "note": "(configuration not stated)", "values": [{"measurement": "EC50", "setting": "[3]", "result": "10.5 µM (active)"}, {"measurement": "EC50", "setting": "[4]", "result": "12.2 µM (active)"}, {"measurement": "EC50", "setting": "[5]", "result": "5.47 µM (active)"}]}, {"compound": "COc1cc2[nH]c(=O)n(CCCCCC(=O)N3CC=C(c4ccccc4)CC3)c(=O)c2cc1OC", "values": [{"measurement": "EC50", "setting": "[6]", "result": "21.9 µM (active)"}, {"measurement": "EC50", "setting": "[7]", "result": "27.9 µM (active)"}]}, {"compound": "COC(=O)CC1C(=O)NCCN1C(=O)c1ccc(S(=O)(=O)N2CCOCC2)cc1", "note": "(configuration not stated)", "values": [{"measurement": "EC50", "setting": "[8]", "result": "> 260 µM (inactive)"}]}, {"compound": "O=C(Nn1cnnc1)c1ccccc1CCc1ccccc1", "values": [{"measurement": "EC50", "setting": "[1]", "result": "> 112 µM (not active)"}, {"measurement": "EC50", "setting": "[2]", "result": "> 112 µM (not active)"}]}, {"compound": "O=C(O)c1cccc(S(=O)(=O)N2CCC(n3nnc4cc(C(F)(F)F)ccc43)CC2)c1", "values": [{"measurement": "EC50", "setting": "[8]", "result": "> 260 µM (inactive)"}]}, {"compound": "Cc1ccccc1-n1c(=O)cc(N2CCN(C(=O)c3ccco3)CC2)[nH]c1=O", "values": [{"measurement": "EC50", "setting": "[1]", "result": "> 112 µM (not active)"}, {"measurement": "EC50", "setting": "[2]", "result": "> 112 µM (not active)"}]}, {"compound": "CC(C)(C)OC(=O)NCCCCCc1nnc(SCc2ccc(F)cc2)o1", "values": [{"measurement": "CC50", "setting": "[9]", "result": "> 40 µM (active)"}]}, {"compound": "CCO[C@H]1OC(C(=O)NCc2nc3ccccc3[nH]2)=C[C@@H](c2csc3ccccc23)[C@@H]1CCCO", "values": [{"measurement": "CC50", "setting": "[9]", "result": "> 40 µM (active)"}]}, {"compound": "Nc1cccc(-c2nc3ccccc3s2)c1", "values": [{"measurement": "EC50", "setting": "[1]", "result": "3.81 µM (active)"}, {"measurement": "EC50", "setting": "[2]", "result": "7.77 µM (active)"}]}, {"compound": "CCC(=O)Oc1ccc(C(=O)Nc2ccc3c(c2)C(=O)N(C2CCCCC2)C3=O)cc1", "values": [{"measurement": "CC50", "setting": "[9]", "result": "39.9 µM (active)"}]}, {"compound": "CCc1cc2c(=O)c(-c3cnn(-c4ccccc4)c3)c(C)oc2cc1OCC(=O)Nc1ccc(F)c(F)c1", "values": [{"measurement": "EC50", "setting": "[6]", "result": "4.93 µM (active)"}, {"measurement": "EC50", "setting": "[7]", "result": "4.88 µM (active)"}]}, {"compound": "COCCN(Cc1cc2cc3c(cc2n2nnnc12)OCO3)C(=O)c1ccccc1F", "values": [{"measurement": "EC50", "setting": "[3]", "result": "> 120 µM (not active)"}, {"measurement": "EC50", "setting": "[4]", "result": "> 120 µM (not active)"}, {"measurement": "EC50", "setting": "[5]", "result": "> 120 µM (not active)"}]}, {"compound": "O=C(CCNC(=O)C1CCN(S(=O)(=O)c2ccc(F)cc2)CC1)NCc1ccc(Cl)cc1", "values": [{"measurement": "EC50", "setting": "[1]", "result": "> 112 µM (not active)"}, {"measurement": "EC50", "setting": "[2]", "result": "> 112 µM (not active)"}]}, {"compound": "Nc1nnc(SCc2c(F)cccc2Cl)s1", "values": [{"measurement": "EC50", "setting": "[8]", "result": "> 260 µM (inactive)"}]}, {"compound": "CCOc1ccc(NC(=O)C(=O)NCCN2CCN(C(=O)c3ccc(C)cc3)CC2)cc1", "values": [{"measurement": "EC50", "setting": "[3]", "result": "14.7 µM (active)"}, {"measurement": "EC50", "setting": "[4]", "result": "64.8 µM (active)"}, {"measurement": "EC50", "setting": "[5]", "result": "63.7 µM (active)"}]}, {"compound": "Cc1cc2oc(=O)cc(CSc3nc(N)cc(N)n3)c2cc1C", "values": [{"measurement": "EC50", "setting": "[8]", "result": "> 260 µM (inactive)"}]}, {"compound": "O=C(Nc1cc(S(=O)(=O)Nc2ccc(Cl)cc2)ccc1N1CCCCC1)c1ccc(F)cc1Cl", "values": [{"measurement": "AC50", "setting": "[10]", "result": "2.07 µM (active)"}, {"measurement": "IC50", "setting": "[11]", "result": "> 66 µM (inactive)"}, {"measurement": "IC50", "setting": "[12]", "result": "> 66 µM (inactive)"}]}, {"compound": "COc1ccc(C(=O)C2CCCN(Cc3ccc(C)s3)C2)c(OC)c1", "note": "(configuration not stated)", "values": [{"measurement": "EC50", "setting": "[8]", "result": "> 260 µM (inactive)"}]}, {"compound": "COc1ccccc1N1CCN(S(=O)(=O)CCNC(=O)c2ccc(Br)o2)CC1", "values": [{"measurement": "EC50", "setting": "[3]", "result": "> 120 µM (not active)"}, {"measurement": "EC50", "setting": "[4]", "result": "> 120 µM (not active)"}, {"measurement": "EC50", "setting": "[5]", "result": "> 120 µM (not active)"}]}]}
